Measured values as given in patent US10787447B2, “Pharmaceutical compounds” (Heptares Therapeutics Limited, priority 2018, dated 2020).

Legend:
Type in all cases: cell-based
[1] = target: T1, human muscarinic M4 receptor (Homo sapiens, UniProt P08173); assay: Alphascreen Surefire phospho-ERK1/2 functional assay, M4; settings: for % Emax cf. ACh, M4: CHO cells stably expressing human M4; for % Emax cf. ACh, M4 / Emax: Emax relative to ACh; for EC50: pEC50 M4, CHO cells stably expressing human M4, phospho-ERK1/2; for Emax: CHO, read-out: % Emax cf. ACh, M4, CHO cells stably expressing human M4
T1 sequence (P08173 1-479): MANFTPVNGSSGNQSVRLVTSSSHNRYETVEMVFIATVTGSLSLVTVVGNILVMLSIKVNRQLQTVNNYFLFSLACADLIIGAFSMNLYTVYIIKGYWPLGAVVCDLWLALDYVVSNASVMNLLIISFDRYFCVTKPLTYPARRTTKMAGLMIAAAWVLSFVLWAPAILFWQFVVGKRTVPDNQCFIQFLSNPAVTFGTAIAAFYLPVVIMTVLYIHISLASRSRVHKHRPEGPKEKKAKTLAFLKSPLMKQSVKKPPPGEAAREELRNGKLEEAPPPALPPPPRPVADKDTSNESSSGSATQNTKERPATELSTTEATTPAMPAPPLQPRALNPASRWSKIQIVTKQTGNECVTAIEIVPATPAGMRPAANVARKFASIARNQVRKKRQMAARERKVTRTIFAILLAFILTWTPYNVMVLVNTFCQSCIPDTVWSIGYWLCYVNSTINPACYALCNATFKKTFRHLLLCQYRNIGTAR
Protocol: (§1) ERK1/2 phosphorylation is a downstream consequence of both Gq/11 and Gi/o protein coupled receptor activation, making it highly suitable for the assessment of M1, M3 (Gq/11 coupled) and M2, M4 receptors (Gi/o coupled), rather than using different assay formats for different receptor subtypes. CHO cells stably expressing the human muscarinic M1, M2, M3 or M4 receptor were plated (25K/well) onto 96-well tissue culture plates in MEM-alpha+10% dialysed FBS. Once adhered, cells were serum-starved overnight. Agonist stimulation was performed by the addition of 5 μL agonist to the cells for 5 min (37° C.). Media was removed and 50 μL of lysis buffer added. After 15 min, a 4 μL sample was transferred to 384-well plate and 7 μL of detection mixture added.
(§2) Isomer assignment (Isomer 1, Isomer 2, etc.) is based on the retention time of the compound using the separation technique that was performed in the final purification step. By implication, this could be reversed phase HPLC, chiral HPLC or chiral SFC retention time, and this will vary from compound to compound.

[2] = target: T2, human muscarinic M2 receptor (Homo sapiens, UniProt P08172); assay: Alphascreen Surefire phospho-ERK1/2 functional assay, M2; settings: for % Emax cf. ACh, M2: CHO cells stably expressing human M2; for % Emax cf. ACh, M2 / Emax: Emax relative to ACh; for EC50: pEC50 M2, CHO cells stably expressing human M2, phospho-ERK1/2; for Emax: CHO, read-out: % Emax cf. ACh, M2, CHO cells stably expressing human M2
T2 sequence (P08172 1-466): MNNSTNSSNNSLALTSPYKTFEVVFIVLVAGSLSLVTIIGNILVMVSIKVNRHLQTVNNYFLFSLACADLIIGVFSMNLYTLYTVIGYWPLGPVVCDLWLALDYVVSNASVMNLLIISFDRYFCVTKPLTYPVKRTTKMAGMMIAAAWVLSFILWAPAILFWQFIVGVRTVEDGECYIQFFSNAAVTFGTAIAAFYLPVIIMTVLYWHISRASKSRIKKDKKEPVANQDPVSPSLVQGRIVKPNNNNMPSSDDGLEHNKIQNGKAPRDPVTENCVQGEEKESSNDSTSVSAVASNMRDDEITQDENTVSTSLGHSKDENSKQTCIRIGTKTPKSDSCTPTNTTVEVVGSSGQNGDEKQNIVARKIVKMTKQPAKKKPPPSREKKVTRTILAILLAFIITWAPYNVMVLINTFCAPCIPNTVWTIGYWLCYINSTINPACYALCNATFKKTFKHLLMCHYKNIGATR
Protocol: as §1, §2

[3] = target: T3, human muscarinic M1 receptor (Homo sapiens, UniProt P11229); assay: Alphascreen Surefire phospho-ERK1/2 functional assay, M1; settings: for % Emax cf. ACh, M1: CHO cells stably expressing human M1; for % Emax cf. ACh, M1 / Emax: Emax relative to ACh; for EC50: pEC50 M1, CHO cells stably expressing human M1, phospho-ERK1/2; for Emax: CHO, read-out: % Emax cf. ACh, M1, CHO cells stably expressing human M1
T3 sequence (P11229 1-460): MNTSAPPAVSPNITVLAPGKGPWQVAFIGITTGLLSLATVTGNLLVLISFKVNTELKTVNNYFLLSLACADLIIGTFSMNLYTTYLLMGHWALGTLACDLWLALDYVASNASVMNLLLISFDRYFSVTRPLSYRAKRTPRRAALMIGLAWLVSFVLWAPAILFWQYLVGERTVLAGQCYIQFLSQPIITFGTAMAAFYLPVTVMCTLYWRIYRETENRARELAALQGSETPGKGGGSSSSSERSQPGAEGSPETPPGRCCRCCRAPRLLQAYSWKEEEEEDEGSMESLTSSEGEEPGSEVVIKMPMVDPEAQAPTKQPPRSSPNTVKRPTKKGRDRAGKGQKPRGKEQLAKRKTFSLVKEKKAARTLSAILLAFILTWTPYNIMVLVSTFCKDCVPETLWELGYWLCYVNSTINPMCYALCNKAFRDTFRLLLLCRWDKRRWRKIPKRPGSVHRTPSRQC
Protocol: as §1, with “Functional assays were performed using the Alphascreen Surefire phospho-ERK1/2 assay (Crouch & Osmond, Comb. Chem. High Throughput Screen, 2008). ERK1/2” for “ERK1/2”
as §2, with “For the vast majority of examples at least two diastereomers exist and these have been separated, unless otherwise stated, using the techniques of reversed phase HPLC, chiral HPLC or chiral SFC. Isomer assignment” for “Isomer assignment”

[4] = target: T4, human muscarinic M3 receptor (Homo sapiens, UniProt P20309); assay: Alphascreen Surefire phospho-ERK1/2 functional assay, M3; settings: for % Emax cf. ACh, M3: CHO cells stably expressing human M3; for % Emax cf. ACh, M3 / Emax: Emax relative to ACh; for EC50: pEC50 M3, CHO cells stably expressing human M3, phospho-ERK1/2; for Emax: CHO, read-out: % Emax cf. ACh, M3, CHO cells stably expressing human M3
T4 construct: expressed in transfected cells
T4 sequence (P20309 whole entry): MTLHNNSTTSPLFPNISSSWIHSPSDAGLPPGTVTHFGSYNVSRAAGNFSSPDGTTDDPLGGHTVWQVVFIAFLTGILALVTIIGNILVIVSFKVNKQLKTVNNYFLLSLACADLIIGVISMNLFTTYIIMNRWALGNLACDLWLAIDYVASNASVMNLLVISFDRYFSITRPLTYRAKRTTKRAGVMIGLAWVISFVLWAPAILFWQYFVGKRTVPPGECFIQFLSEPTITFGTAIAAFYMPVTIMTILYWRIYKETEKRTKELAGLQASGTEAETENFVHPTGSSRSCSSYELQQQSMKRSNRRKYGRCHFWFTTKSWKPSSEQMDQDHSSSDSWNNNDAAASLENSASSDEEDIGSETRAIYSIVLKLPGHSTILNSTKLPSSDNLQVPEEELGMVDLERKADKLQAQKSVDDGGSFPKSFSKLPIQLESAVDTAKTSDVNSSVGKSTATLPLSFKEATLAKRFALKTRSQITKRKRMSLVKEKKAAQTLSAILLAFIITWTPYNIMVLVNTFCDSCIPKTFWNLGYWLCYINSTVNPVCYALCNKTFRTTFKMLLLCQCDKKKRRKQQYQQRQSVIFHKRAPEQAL
Protocol: as §1, §2

| Structure (SMILES) | EC50 [1] [µM] | EC50 [2] [µM] | EC50 [3] [µM] | EC50 [4] [µM] | Emax [4] [%] | further results |
| --- | --- | --- | --- | --- | --- | --- |
| CCOC(=O)N1C2COCC1CC(N1CCC(N3CC(F)(F)C[C@@H]3CO)CC1)C2 (single isomer, unassigned) [Example 4-1 Isomer 1] | 0.0309 | 0.251 | 0.155 | > 20 | – | % Emax cf. ACh, M4 ([1]; listed as 4-1 Isomer 1): 114%; % Emax cf. ACh, M2 ([2]; listed as 4-1 Isomer 1): 87%; % Emax cf. ACh, M1 ([3]; listed as 4-1 Isomer 1): 108%; % Emax cf. ACh, M3 ([4]; listed as 4-1 Isomer 1): 11% |
| CCOC(=O)N1C2COCC1CC(N1CCC(N3CCCCCC3=O)CC1)C2 (single isomer, unassigned) [Example 6-7 Isomer 2, Ethyl 7-[4-(2-oxoazepan-1-yl)piperidin-1-yl]-3-oxa-9-azabicyclo[3.3.1]nonane-9-carboxylate] | 0.174 | > 20 | 2.19 | – | – | % Emax cf. ACh, M4 ([1]; listed as 6-7 Isomer 2): 52%; % Emax cf. ACh, M2 ([2]; listed as 6-7 Isomer 2): 5%; % Emax cf. ACh, M1 ([3]; listed as 6-7 Isomer 2): 41%; % Emax cf. ACh, M3 ([4]; listed as 6-7 Isomer 2): 2% |
| CCOC(=O)N1C2COCC1CC(N1CCC3(CC1)CNC(=O)C3)C2 (single isomer, unassigned) [Example 5-2 Isomer 2, Ethyl 7-(3-oxo-2,8-diazaspiro[4.5]dec-8-yl)-3-oxa-9-azabicyclo[3.3.1]nonane-9-carboxylate] | > 20 | > 20 | 0.0437 | > 20 | 5 | % Emax cf. ACh, M4 [1]: 18%; Emax [2]: 8%; % Emax cf. ACh, M1 ([3]; listed as 5-2 Isomer 2): 61% |
| CCOC(=O)N1C2COCC1CC(N1CCC(N(CC3(C)CCC3)C(C)=O)CC1)C2 (single isomer, unassigned) [Example 6-4 Isomer 2, Ethyl 7-(4-{acetyl[(1-methylcyclobutyl)methyl]amino}piperidin-1-yl)-3-oxa-9-azabicyclo[3.3.1]nonane-9-carboxylate] | 0.204 | > 20 | 0.0339 | > 20 | 19 | % Emax cf. ACh, M4 ([1]; listed as 6-4 Isomer 2): 38%; % Emax cf. ACh, M2 ([2]; listed as 6-4 Isomer 2): 15%; % Emax cf. ACh, M1 ([3]; listed as 6-4 Isomer 2): 72% |
| CCOC(=O)N1C2COCC1CC(N1CCC(n3cccn3)CC1)C2 (single isomer, unassigned) [Example 1-1 Isomer 1, Ethyl 7-[4-(1H-pyrazol-1-yl)piperidin-1-yl]-3-oxa-9-azabicyclo[3.3.1]nonane-9-carboxylate] | 0.0525 | 0.575 | 0.427 | > 20 | 13 | Emax [1]: 100%; Emax [2]: 57%; Emax [3]: 116% |
| CCOC(=O)N1C2COCC1CC(N1CCC(N(CC(C)C)C(C)=O)CC1)C2 (single isomer, unassigned) [Example 6-1 Isomer 1, Ethyl 7-{4-[acetyl(2-methylpropyl)amino]piperidin-1-yl}-3-oxa-9-azabicyclo[3.3.1]nonane-9-carboxylate] | 0.151 | > 20 | 0.178 | > 20 | – | % Emax cf. ACh, M4 ([1]; listed as 6-1 Isomer 1): 77%; % Emax cf. ACh, M2 ([2]; listed as 6-1 Isomer 1): 26%; Emax [3]: 93%; % Emax cf. ACh, M3 ([4]; listed as 6-1 Isomer 1): 7% |
| CCOC(=O)N1C2COCC1CC(N1CCC(N3CCCCC3=O)CC1)C2 (single isomer, unassigned) [Example 6-6 Isomer 1, Ethyl 7-(2-oxo-1,4′-bipiperidin-1′-yl)-3-oxa-9-azabicyclo[3.3.1]nonane-9-carboxylate] | 0.0191 | 0.339 | 0.251 | > 20 | – | % Emax cf. ACh, M4 ([1]; listed as 6-6 Isomer 1): 109%; % Emax cf. ACh, M2 ([2]; listed as 6-6 Isomer 1): 60%; % Emax cf. ACh, M1 ([3]; listed as 6-6 Isomer 1): 103%; % Emax cf. ACh, M3 ([4]; listed as 6-6 Isomer 1): 7% |
| CCOC(=O)N1C2COCC1CC(N1CCC3(CC1)C(=O)Nc1ccccc13)C2 (single isomer, unassigned) [Example 5-5 Isomer 1, Ethyl 7-(2-oxo-1,2-dihydro-1′H-spiro[indole-3,4′-piperidin]-1′-yl)-3-oxa-9-azabicyclo[3.3.1]nonane-9-carboxylate] | 0.0214 | 0.123 | 0.288 | > 20 | 4 | Emax [1]: 99%; % Emax cf. ACh, M2 ([2]; listed as 5-5 Isomer 1): 24%; % Emax cf. ACh, M1 ([3]; listed as 5-5 Isomer 1): 75% |
